Reference: patent US9670227B2, “Thienopyrimidine derivatives, a process for their preparation and pharmaceutical compositions containing them” (LES LABORATOIRES SERVIER, priority 2013, dated 2017)
Like-named read-outs stand apart in the source and are kept apart here.

Target: Mcl-1 protein (UniProtKB primary accession number: Q07820) (Homo sapiens, UniProt Q07820)
Test: Inhibition of Mcl-1 by fluorescence polarisation, Method 1
Type: binding
Conditions: for IC50: read-out: IC50 (M) Mcl-1 FP; for percentage fluorescence polarisation inhibition (Mcl-1 FP), partial inhibitors: test compound at 10 uM, Method 1, or Method 2 where the value is underlined (underlining not visible)
Summary of the method: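 An 11-point DMSO dilution of compound is mixed with buffer (10 mM HEPES, 150 mM NaCl, 0.05% Tween 20, pH 7.4) carrying 1 nM fluorescein-labelled ligand and 5 nM Mcl-1, final concentrations. Displacement is monitored by fluorescence polarisation.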

[1] = fluorescence polarisation, Method 1, or Method 2

Mcl-1 protein, sequence (Q07820 whole entry): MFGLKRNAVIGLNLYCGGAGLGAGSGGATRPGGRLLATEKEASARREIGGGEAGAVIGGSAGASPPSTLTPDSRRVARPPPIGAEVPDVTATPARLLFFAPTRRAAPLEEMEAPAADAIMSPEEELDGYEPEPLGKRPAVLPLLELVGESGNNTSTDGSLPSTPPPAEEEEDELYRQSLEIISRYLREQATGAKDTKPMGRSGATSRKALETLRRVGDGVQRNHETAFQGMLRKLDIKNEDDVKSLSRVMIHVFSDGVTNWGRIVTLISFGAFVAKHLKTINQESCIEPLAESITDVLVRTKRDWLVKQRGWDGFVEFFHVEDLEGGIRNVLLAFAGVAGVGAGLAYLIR

| IC50 [1] | percentage fluorescence polarisation inhibition (Mcl-1 FP), partial inhibitors | Structure (SMILES) | further results |
| --- | --- | --- | --- |
| – | 61.35% @ 10 uM | COc1ccccc1-c1nccc(COc2ccccc2C[C@@H](Oc2ncnc3sc(-c4ccc(F)cc4)c(-c4ccc(OC)c(Cl)c4C)c23)C(=O)OCOC(=O)C(C)(C)C)n1 [Example 849, {[(2R)-2-{[(5Sa)-5-(3-chloro-4-methoxy-2-methylphenyl)-6-(4-fluorophenyl)thieno[2,3-d]pyrimidin-4-yl]oxy}-3-(2-{[2-(2-methoxyphenyl)pyrimidin-4-yl]methoxy}phenyl)propanoyl]oxy}methyl 2,2-dimethylpropanoate] | – |
| – | 7.85% @ 10 uM | COc1ccccc1C[C@@H](Oc1ncnc2sc(-c3ccc(F)cc3)c(-c3ccc(OC)c(Cl)c3C)c12)C(=O)OCC(=O)N(C)C [Example 845, 2-(dimethylamino)-2-oxoethyl (2R)-2-{[(5Sa)-5-(3-chloro-4-methoxy-2-methylphenyl)-6-(4-fluorophenyl)thieno[2,3-d]pyrimidin-4-yl]oxy}-3-(2-methoxyphenyl)propanoate] | – |
| – | 46.7% @ 10 uM | COc1ccccc1-c1nccc(COc2ccccc2C[C@@H](Oc2ncnc3sc(-c4ccc(F)cc4)c(-c4ccc(OC)c(Cl)c4C)c23)C(=O)OCC(=O)N(C)C)n1 [Example 848, 2-(dimethylamino)-2-oxoethyl (2R)-2-{[(5Sa)-5-(3-chloro-4-methoxy-2-methylphenyl)-6-(4-fluorophenyl)thieno[2,3-d]pyrimidin-4-yl]oxy}-3-(2-{[2-(2-methoxyphenyl)pyrimidin-4-yl]methoxy}phenyl)propanoate] | – |

The remaining lines, values behind:

| Structure (SMILES) | IC50 [1] | percentage fluorescence polarisation inhibition (Mcl-1 FP), partial inhibitors | further results |
| --- | --- | --- | --- |
| CC#Cc1sc2ncnc(O[C@H](Cc3ccccc3OC)C(=O)O)c2c1-c1cc(F)c(OC)c(Cl)c1C (single isomer, unassigned) [Example 470] | 4.8e-07 M | – | – |
| CC#Cc1sc2ncnc(O[C@@H](Cc3cccc4occc34)C(=O)O)c2c1-c1ccc(OCCN2CCN(C)CC2)c(Cl)c1C [Example 491, (2S)-3-(1-benzofuran-4-yl)-2-{[(5Ra)-5-{3-chloro-2-methyl-4-[2-(4-methylpiperazin-1-yl)ethoxy]phenyl}-6-(prop-1-yn-1-yl)thieno[2,3-d]pyrimidin-4-yl]oxy}propanoic acid] | – | – | percentage fluorescence polarisation inhibition, Mcl-1 FP (partial inhibitors, @ 10 uM test compound): 28.3% @ 10 uM |
| COc1ccccc1CC(Oc1ncnc2sc(-c3ccco3)c(-c3ccc(OCCN4CCN(C)CC4)c(Cl)c3C)c12)C(=O)O [Example 209, (2R)-2-{[(5Sa)-5-{3-chloro-2-methyl-4-[2-(4-methylpiperazin-1-yl)ethoxy]phenyl}-6-(furan-2-yl)thieno[2,3-d]pyrimidin-4-yl]oxy}-3-(2-methoxyphenyl)propanoic acid] | – | – | IC50 (fluorescence polarisation test, Method 2 values are underlined in the patent (underlining not visible here)): 9.8e-09 M |
| COc1nccc(COc2ccccc2CC(Oc2ncnc3sc(-c4ccc(F)c(OCCN5CCN(C)CC5)c4)c(-c4ccc(OC)c(Cl)c4C)c23)C(=O)O)n1 [Example 698, (2R)-2-{[(5Sa)-5-(3-chloro-4-methoxy-2-methylphenyl)-6-{4-fluoro-3-[2-(4-methylpiperazin-1-yl)ethoxy]phenyl}thieno[2,3-d]pyrimidin-4-yl]oxy}-3-{2-[(2-methoxypyrimidin-4-yl)methoxy]phenyl}propanoic acid] | 7.3e-09 M | – | – |
| Cc1c(-c2c(-c3ccc(F)cc3)sc3ncnc(O[C@H](Cc4ccccc4OCc4ccnc(-c5ccccc5CO)n4)C(=O)O)c23)ccc(OCCN2CCN(C)CC2)c1Cl [Example 728, (2R)-2-{[(5Sa)-5-{3-chloro-2-methyl-4-[2-(4-methylpiperazin-1-yl)ethoxy]phenyl}-6-(4-fluorophenyl)thieno[2,3-d]pyrimidin-4-yl]oxy}-3-[2-({2-[2-(hydroxymethyl)phenyl]pyrimidin-4-yl}methoxy)phenyl]propanoic acid] | 1.18e-09 M | – | – |
| CCc1sc2ncnc(OC(Cc3ccccc3OCC(F)(F)F)C(=O)O)c2c1-c1ccc(OCCN2CCN(C)CC2)c(Cl)c1C [Example 454, (2R)-2-[((5Sa)-5-{3-chloro-2-methyl-4-[2-(4-methylpiperazin-1-yl)ethoxy]phenyl}-6-ethylthieno[2,3-d]pyrimidin-4-yl)oxy]-3-[2-(2,2,2-trifluoroethoxy)phenyl]propanoic acid] | 1.2e-08 M | – | – |
